Data published in patent US11246907B2, “Immunosuppressive agents and their use in therapy” (Norwegian University of Science and Technology, priority 2013, dated 2022).

How the values were obtained:
monocytes = assay: Annexin staining / flow cytometry of monocytes (apoptosis); assay type: cell-based, human; details: 4 hours, monocytes
Protocol: Annexin staining was used to determine cell viability and cells were counted using flow cytometry.
Peripheral blood […] were isolated from A+ buffy coats (Blood Bank, St. Olav's University Hospital) by density gradient centrifugation (Lymphoprep; Axis-Shield PoC, Oslo, Norway). The adherent cell fraction after 90 minute incubation, termed monocytes, were washed twice with HANKS and maintained in RPMI 1640 supplemented with 2 mM glutamine, […] gentamicin and 25% heat-inactivated HS over-night. Cells were cultured at 37° C. in a humidified atmosphere of 5% CO2 over-night. […] An R11 peptide and no peptide treatment were used as controls. After 4 hours, the cells were washed once in PBS, and re-suspended in buffer as recommended by the manufacturer of the Annexin V-Pacific Blue kit (Invitrogen). Cells were identified monocytes according to size (FSC) and granularity (SSC).

[1] = test system: peripheral blood monocytes; assay: Multiplex (27-plex) cytokine secretion of TLR-ligand stimulated peripheral blood monocytes; assay type: cell-based, human; details: LPS or polyIC, 4 h; ATX-101 4 μM, SB203580 10 μM, LY294002 5 and 10 μM, SC66 1 μg/ml
Protocol: Measured cytokine levels were normalized to cytokine levels from monocytes stimulated with TLR ligand alone. A two fold or higher increase in cytokine level after TLR stimulation was defined as cytokine induction. […] Isolated monocytes were stimulated with 10 ng/ml LPS and 40 μg/ml polyIC alone and in combination with 4 μM ATX-101 for 4 h. […] DRAQS was used for nuclear staining. Bar, 5 μm.
Data is from one representative donor out of three; and (B-E) show multiplex analysis of cytokine levels produced by peripheral blood monocytes stimulated with 10 ng/ml LPS (B and D, same donor) and 40 μg/ml polyIC (C and E, same donor) after 4 h. (B and C) Stimulated-monocytes were treated with 4 μM ATX-101, 10 μM SB203580 (p38 MAPK inhibitor), and combination of ATX-101 and SB203580. (D and E) Stimulated-monocytes were treated with 4 μM ATX-101, 5 and 10 μM LY294002 (PI3K class I inhibitor), and combination of ATX-101 and LY294002. Measured cytokine levels were normalized to cytokine levels from monocytes stimulated with TLR ligand alone. A two fold or higher increase in cytokine level after TLR stimulation was defined as cytokine induction. # Value is too low to be visible in the column diagram; ? cytokine measurement was out of range. Data is from representative experiments out of two.
Measured cytokine levels were normalized to cytokine levels from monocytes stimulated with TLR ligand alone. A two fold or higher increase in cytokine level after TLR stimulation was defined as cytokine induction. ? Cytokine measurement was out of range. Data is from one experiment out of two.
Measured cytokine levels were normalized to cytokine levels from monocytes stimulated with TLR ligand alone. Data is from one donor. We obtained similar results for IL-6 secretion in two other donors.
Measured cytokine levels were normalized to cytokine levels from monocytes stimulated with TLR ligand alone. A two fold or higher increase in cytokine level after TLR stimulation was defined as cytokine induction. # Value is too low to be visible in the column diagram; 0 Cytokine measurement was out of range. Data is from one experiment out of two.
Peripheral blood mononuclear cells were isolated from A+ buffy coats (Blood Bank, St. Olav's University Hospital, Trondheim, Norway) by density gradient centrifugation (Lymphoprep; Axis-Shield PoC, Oslo, Norway). Mononucleated cells were seeded at 4 million cells/ml in serum-free RPMI 1640 supplemented with glutamine and gentamicin. After 60-90 min the adherent cell population was washed before cultured in medium with 10% heat-inactivated human serum (Blood Bank, St. Olav's University Hospital). ATX-101 (4 μM [Innovagen, Lund, Sweden]), ATX-A (4 μM, [Innovagen]) (ATX-A is represented in SEQ ID NO: 1206 and contains the motif RALVK (SEQ ID NO: 1207), which is not capable of interacting with PCNA), p38 inhibitor (SB203580, 10 μM, [Sigma-Aldrich]), PI3K inhibitor (LY294002, 5 and 10 μM, [Sigma-Aldrich]), and Akt inhibitor (Akt inhibitor XVIII SC66, 1 μg/ml, [Sigma-Aldrich]) were added in serum-free medium and incubated for 5 min before LPS (10 ng/ml, [Sigma-Aldrich]), polylC (40 μg/ml, [GE Healthcare, Little Chalfont, UK]), PAM3Cys (10 ng/ml, [Invivogen, San Diego, Calif., USA]) or R848 (10 μg/ml, [Invivogen]) were added in serum-containing medium. The cells were incubated for 4 h before the supernatants were harvested and frozen prior to further cytokine analysis by the 27-plex assay (Bio-Plex ProTM Human cytokine 27-plex assay).

Compound	Percentage of annexin positive cells (monocytes; 5μM peptide treatment) [%]	Percentage of annexin positive cells (monocytes; 10 μM peptide treatment) [%]	cytokine secretion from stimulated monocytes, single agent [1]
CC[C@H](C)[C@H](NC(=O)[C@H](CCCCN)NC(=O)[C@H](CCCNC(=N)N)NC(=O)[C@H](CCCCN)NC(=O)[C@H](CCCCN)NC(=O)[C@H](CCCCN)NC(=O)[C@H](Cc1c[nH]c2ccccc12)NC(=O)[C@@H]1CCCN1C(=O)[C@@H](NC(=O)[C@H](CC(C)C)NC(=O)[C@H](Cc1c[nH]c2ccccc12)NC(=O)[C@H](CCCNC(=N)N)NC(=O)[C@H](CC(=O)O)NC(=O)[C@@H](N)CCSC)C(C)C)C(=O)N[C@@H](CCCNC(=N)N)C(=O)N[C@@H](CCCNC(=N)N)C(=O)N[C@@H](CCCNC(=N)N)C(=O)N[C@@H](CCCNC(=N)N)C(=O)N[C@@H](CCCNC(=N)N)C(=O)N[C@@H](CCCNC(=N)N)C(=O)N[C@@H](CCCNC(=N)N)C(=O)N[C@@H](CCCNC(=N)N)C(=O)N[C@@H](CCCNC(=N)N)C(=O)N[C@@H](CCCNC(=N)N)C(=O)N[C@@H](CCCNC(=N)N)C(=O)O [ATX-P]	65	81	
N=C(N)NCCC[C@H](NC(=O)[C@H](CCCNC(=N)N)NC(=O)[C@H](CCCNC(=N)N)NC(=O)[C@H](CCCNC(=N)N)NC(=O)[C@H](CCCNC(=N)N)NC(=O)[C@H](CCCNC(=N)N)NC(=O)[C@H](CCCNC(=N)N)NC(=O)[C@H](CCCNC(=N)N)NC(=O)[C@H](CCCNC(=N)N)NC(=O)[C@H](CCCNC(=N)N)NC(=O)[C@@H](N)CCCNC(=N)N)C(=O)O [R11, reference compound]	55	56	
C[S+]([O-])c1ccc(-c2nc(-c3ccncc3)c(-c3ccc(F)cc3)[nH]2)cc1 (stereo not drawn) [SB203580, reference compound]			reduced cytokine secretion
O=C1/C(=C/c2ccncc2)CCC/C1=C\c1ccncc1 [SC66, reference compound]			reduces cytokine secretion of monocytes to or below the basal levels
